Measured values reported in patent publication US20200016159A1, “N3-CYCLICALLY SUBSTITUTED THIENOURACILS AND USE THEREOF” (Bayer Aktiengesellschaft, priority 2016, published 2020).

Molecular target: T1, human adenosine A2b receptor (Homo sapiens, UniProt P29275)
T1 sequence (P29275 1-332): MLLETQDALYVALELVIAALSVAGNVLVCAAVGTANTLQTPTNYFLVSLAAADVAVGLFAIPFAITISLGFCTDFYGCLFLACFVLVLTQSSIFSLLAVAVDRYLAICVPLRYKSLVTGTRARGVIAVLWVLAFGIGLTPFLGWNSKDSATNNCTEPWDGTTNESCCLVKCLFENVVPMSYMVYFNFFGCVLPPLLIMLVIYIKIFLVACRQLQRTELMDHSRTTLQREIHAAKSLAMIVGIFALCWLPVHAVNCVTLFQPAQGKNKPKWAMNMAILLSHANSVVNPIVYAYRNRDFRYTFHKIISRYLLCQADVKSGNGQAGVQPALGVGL
Assay: Cellular in vitro reporter gene test for A2b receptor activity (antagonism of NECA)
Assay type: cell-based
Set-up: expressed in transfected cells; host or cells: CHO-K1 (Chinese hamster ovary) with CRE-luciferase reporter
Details: recombinant CHO-K1 cells, CRE-luciferase reporter, co-incubation with EC50 concentration of NECA, 3 hours
Protocol: The identification of selective antagonists of the human adenosine A2b receptor and the quantification of the efficacy and selectivity of the compounds according to the invention was carried out with the aid of recombinant cell lines for the human adenosine receptors A1, A2a, A2b and A3. These cell lines were originally derived from an ovarepithelial cell of the hamster (Chinese Hamster Ovary, CHO-K1, American Type Culture Collection, Manassas, Va. 20108, USA). In addition to the respective recombinantly expressed adenosine receptor for testing the efficacy at the A1, A2a and A2b receptors, the cell lines contain a reporter gene construct where expression of the firefly (Photinus pyralis) luciferase is under the control of a promoter which can be activated via intracellular signal cascades by stimulation of the receptors with the (not subtype-selective) adenosine receptor agonist NECA (5′-N-ethylcarboxamidoadenosine) [S. J. Hill, J. G. Baker, S. Rhees, Curr. Opin. Pharmacol. 1, 526-532 (2001)].
In the case of the A2a and A2b cell lines, this is a minimal promoter having a plurality of cAMP-responsive elements (CRE). Stimulation of the Gs-coupled A2b or A2a receptors by NECA ultimately leads, via formation of cAMP, to CRE-dependent induction of luciferase expression, which is detected 3 hours after the start of the incubation with NECA using a detection solution in a suitable luminometer. For testing the antagonists, initially, in a pre-experiment, the concentration of NECA which, at the test day in question, results in half-maximum stimulation of luciferase expression (EC50 concentration) is determined. By joint incubation of this EC50 concentration of NECA with the substances to be tested, it is possible to determine their antagonistic activity.
Table 1 below lists the IC50 values from the A2b receptor assay for individual working examples (in some cases as means of a plurality of independent individual determinations and rounded to two significant figures; it may also be the case here that various independent preparations of the respective working example have been used): […]

Q: Cc1c(CN2CCNC(=O)C2=O)sc2c1c(=O)n(C1CC1)c(=O)n2CC1CCCO1 (racemic) [Example 45, 3-Cyclopropyl-6-[(2,3-dioxopiperazin-1-yl)methyl]-5-methyl-1-(tetrahydrofuran-2-ylmethyl)thieno[2,3-d]pyrimidine-2,4(1H,3H)-dione] was tested. Which IC50 did it give?
A: The IC50 was 110 nM.

Q: For Cc1c(Cn2cc[nH]c2=O)sc2c1c(=O)n(C1CC1C)c(=O)n2CCOC(F)(F)F (single isomer, unassigned) [Example 271, 5-Methyl-3-(2-methylcyclopropyl)-6-[(2-oxo-2,3-dihydro-1H-imidazol-1-yl)methyl]-1-[2-(trifluoromethoxy)ethyl]thieno[2,3-d]pyrimidine-2,4(1H,3H)-dione], which IC50 is on record?
A: Its IC50 is 1.4 nM.

Q: How did the IC50 turn out when Cc1c(CN2CCNC2=O)sc2c1c(=O)n([C@H]1C[C@@H]1C)c(=O)n2CC1CCO1 (single isomer, unassigned) [Example 284] was run?
A: Its IC50 is 8.6 nM.

Q: For Cc1c(CN2CCNC2=O)sc2c1c(=O)n(C1CC1C)c(=O)n2C (single isomer, unassigned) [Example 223, 1,5-Dimethyl-3-(2-methylcyclopropyl)-6-[(2-oxoimidazolidin-1-yl)methyl]thieno[2,3-d]pyrimidine-2,4(1H,3H)-dione], which IC50 is on record?
A: The IC50 was 19 nM.

Q: Which IC50 does the source give for Cc1c(CN2CCNC2=O)sc2c1c(=O)n(C1CC1C)c(=O)n2CCOC(F)(F)F (single isomer, unassigned) [Example 262, 5-Methyl-3-(2-methylcyclopropyl)-6-[(2-oxoimidazolidin-1-yl)methyl]-1-[2-(trifluoromethoxy)ethyl]thieno[2,3-d]pyrimidine-2,4(1H,3H)-dione] here?
A: Its IC50 is 1.2 nM.

Q: Cc1c(Cn2nc[nH]c2=O)sc2c1c(=O)n(C1CC1)c(=O)n2C[C@H]1CCCO1 [Example 50, 3-Cyclopropyl-5-methyl-6-[(5-oxo-4,5-dihydro-1H-1,2,4-triazol-1-yl)methyl]-1-[(2R)-tetrahydrofuran-2-ylmethyl]thieno[2,3-d]pyrimidine-2,4(1H,3H)-dione] was tested. Which IC50 did it give?
A: Its IC50 is 140 nM.

Q: For Cc1c(CN2CCNC2=O)sc2c1c(=O)n(C1CC1)c(=O)n2C[C@H]1CCCO1 [Example 38, 3-Cyclopropyl-5-methyl-6-[(2-oxoimidazolidin-1-yl)methyl]-1-[(2R)-tetrahydrofuran-2-ylmethyl]thieno[2,3-d]pyrimidine-2,4(1H,3H)-dione], which IC50 is on record?
A: The IC50 was 33 nM.

Q: How did the IC50 turn out when Cc1c(CN2CCNC2=O)sc2c1c(=O)n(C1(C)CCC1)c(=O)n2CCC(F)(F)F [Example 134, 5-Methyl-3-(1-methylcyclobutyl)-6-[(2-oxoimidazolidin-1-yl)methyl]-1-(3,3,3-trifluoropropyl)thieno[2,3-d]pyrimidine-2,4(1H,3H)-dione] was run?
A: Its IC50 is 34 nM.

Q: COCCn1c(=O)n(C2(C)CCC2)c(=O)c2c(C)c(CN3CCNC(=O)C3=O)sc21 [Example 142, 6-[(2,3-Dioxopiperazin-1-yl)methyl]-1-(2-methoxyethyl)-5-methyl-3-(1-methylcyclobutyl)thieno[2,3-d]pyrimidine-2,4(1H,3H)-dione] was tested. Which IC50 did it give?
A: The IC50 was 460 nM.

Q: How did the IC50 turn out when CCC1CC1n1c(=O)c2c(C)c(Cn3nc[nH]c3=O)sc2n(CCOC)c1=O (single isomer, unassigned) [Example 305, 3-(2-Ethylcyclopropyl)-1-(2-methoxyethyl)-5-methyl-6-[(5-oxo-4,5-dihydro-H-1,2,4-triazol-1-yl)methyl]thieno[2,3-d]pyrimidine-2,4(1H,3H)-dione] was run?
A: Its IC50 is 120 nM.

Q: How did the IC50 turn out when COCCn1c(=O)n(C2CC2C)c(=O)c2c(C)c(CN3CCNC3=O)sc21 (racemic) [Example 94, 1-(2-Methoxyethyl)-5-methyl-3-(2-methylcyclopropyl)-6-[(2-oxoimidazolidin-1-yl)methyl]thieno[2,3-d]pyrimidine-2,4(1H,3H)-dione] was run?
A: Its IC50 is 7.2 nM.

Q: For COCCn1c(=O)n(C2CC2)c(=O)c2c(C)c(Cn3nc[nH]c3=O)sc21 [Example 29, 3-Cyclopropyl-1-(2-methoxyethyl)-5-methyl-6-[(5-oxo-4,5-dihydro-1H-1,2,4-triazol-1-yl)methyl]thieno[2,3-d]pyrimidine-2,4(1H,3H)-dione], which IC50 is on record?
A: Its IC50 is 57 nM.

Q: Which IC50 does the source give for COCCn1c(=O)n(C2CC(F)(F)C2)c(=O)c2c(C)c(CN3CCNC3=O)sc21 [Example 125, 3-(3,3-Difluorocyclobutyl)-1-(2-methoxyethyl)-5-methyl-6-[(2-oxoimidazolidin-1-yl)methyl]thieno[2,3-d]pyrimidine-2,4(1H,3H)-dione] here?
A: The IC50 was 33 nM.

Q: How did the IC50 turn out when COCCn1c(=O)n(C2(C)CC2)c(=O)c2c(C)c(CN3CCNC(=O)C3=O)sc21 [Example 73, 6-[(2,3-Dioxopiperazin-1-yl)methyl]-1-(2-methoxyethyl)-5-methyl-3-(1-methylcyclopropyl)thieno[2,3-d]pyrimidine-2,4(1H,3H)-dione] was run?
A: Its IC50 is 29 nM.

Q: For Cc1c(Cn2nc[nH]c2=O)sc2c1c(=O)n(C1(C)CC1)c(=O)n2CC1CC1(F)F (racemic) [Example 66, 1-[(2,2-Difluorocyclopropyl)methyl]-5-methyl-3-(1-methylcyclopropyl)-6-[(5-oxo-4,5-dihydro-1H-1,2,4-triazol-1-yl)methyl]thieno[2,3-d]pyrimidine-2,4(1H,3H)-dione], which IC50 is on record?
A: Its IC50 is 140 nM.

Q: For Cc1c(CN2CCNC2=NC#N)sc2c1c(=O)n(C1CC(C)(C)C1)c(=O)n2CCC(F)(F)F [Example 165, [1-{[3-(3,3-Dimethylcyclobutyl)-5-methyl-2,4-dioxo-1-(3,3,3-trifluoropropyl)-1,2,3,4-tetrahydrothieno[2,3-d]pyrimidin-6-yl]methyl}imidazolidin-2-ylidene]cyanamide], which IC50 is on record?
A: Its IC50 is 14 nM.

Q: How did the IC50 turn out when Cc1c(CN2CCNC2=O)sc2c1c(=O)n(C1CC1C)c(=O)n2CC(F)F (single isomer, unassigned) [Example 235, 1-(2,2-Difluoroethyl)-5-methyl-3-(2-methylcyclopropyl)-6-[(2-oxoimidazolidin-1-yl)methyl]thieno[2,3-d]pyrimidine-2,4(1H,3H)-dione] was run?
A: The IC50 was 18 nM.

Q: How did the IC50 turn out when Cc1c(CN2CCNC2=O)sc2c1c(=O)n(C1CC1C)c(=O)n2C[C@H]1CCCO1 (stereo partly drawn) [Example 286, 5-Methyl-3-(2-methylcyclopropyl)-6-[(2-oxoimidazolidin-1-yl)methyl]-1-[(2R)-tetrahydrofuran-2-ylmethyl]thieno[2,3-d]pyrimidine-2,4(1H,3H)-dione] was run?
A: Its IC50 is 17 nM.

Q: For COCCn1c(=O)n(C2CC(C)(C)C2)c(=O)c2c(C)c(Cn3nc[nH]c3=O)sc21 [Example 173, 3-(3,3-Dimethylcyclobutyl)-1-(2-methoxyethyl)-5-methyl-6-[(5-oxo-4,5-dihydro-1H-1,2,4-triazol-1-yl)methyl]thieno[2,3-d]pyrimidine-2,4(1H,3H)-dione], which IC50 is on record?
A: The IC50 was 83 nM.

Q: For Cc1c(Cn2nc[nH]c2=O)sc2c1c(=O)n(C1(C)CC1)c(=O)n2C[C@H]1CCCO1 [Example 83, 5-Methyl-3-(1-methylcyclopropyl)-6-[(5-oxo-4,5-dihydro-1H-1,2,4-triazol-1-yl)methyl]-1-[(2R)-tetrahydrofuran-2-ylmethyl]thieno[2,3-d]pyrimidine-2,4(1H, 3H)-dione], which IC50 is on record?
A: Its IC50 is 130 nM.

Q: CCC1CC1n1c(=O)c2c(C)c(CN3CCNC3=O)sc2n(CCOC)c1=O (racemic) [Example 300, 3-(2-Ethylcyclopropyl)-1-(2-methoxyethyl)-5-methyl-6-[(2-oxoimidazolidin-1-yl)methyl]thieno[2,3-d]pyrimidine-2,4(1H,3H)-dione] was tested. Which IC50 did it give?
A: The IC50 was 13 nM.

Q: For CCn1c(=O)n(C2CC2)c(=O)c2c(C)c(Cn3nc[nH]c3=O)sc21 [Example 194, 3-Cyclopropyl-1-ethyl-5-methyl-6-[(5-oxo-4,5-dihydro-1H-1,2,4-triazol-1-yl)methyl]thieno[2,3-d]pyrimidine-2,4(1H,3H)-dione], which IC50 is on record?
A: The IC50 was 180 nM.

Q: CCCn1c(=O)n(C2CC2C)c(=O)c2c(C)c(CN3CCNC3=O)sc21 (racemic) [Example 227, 5-Methyl-3-(2-methylcyclopropyl)-6-[(2-oxoimidazolidin-1-yl)methyl]-1-propylthieno[2,3-d]pyrimidine-2,4(1H,3H)-dione] was tested. Which IC50 did it give?
A: Its IC50 is 2.9 nM.

Q: Which IC50 does the source give for Cc1c(CN2CCNC2=O)sc2c1c(=O)n(C1CC1C)c(=O)n2CC(F)(F)F (single isomer, unassigned) [Example 239, 5-Methyl-3-(2-methylcyclopropyl)-6-[(2-oxoimidazolidin-1-yl)methyl]-1-(2,2,2-trifluoroethyl)thieno[2,3-d]pyrimidine-2,4(1H,3H)-dione] here?
A: The IC50 was 4.7 nM.
